One assay has as its target T1, Thrombin receptor (Homo sapiens, UniProt P25116).
T1 construct: Platelet membranes were prepared using a modification of the method of Natarajan et al; tissue North Jersey Blood Center (East Orange, N.J.); host or cells: platelets (platelet concentrates), membranes
T1 sequence (P25116 22-425): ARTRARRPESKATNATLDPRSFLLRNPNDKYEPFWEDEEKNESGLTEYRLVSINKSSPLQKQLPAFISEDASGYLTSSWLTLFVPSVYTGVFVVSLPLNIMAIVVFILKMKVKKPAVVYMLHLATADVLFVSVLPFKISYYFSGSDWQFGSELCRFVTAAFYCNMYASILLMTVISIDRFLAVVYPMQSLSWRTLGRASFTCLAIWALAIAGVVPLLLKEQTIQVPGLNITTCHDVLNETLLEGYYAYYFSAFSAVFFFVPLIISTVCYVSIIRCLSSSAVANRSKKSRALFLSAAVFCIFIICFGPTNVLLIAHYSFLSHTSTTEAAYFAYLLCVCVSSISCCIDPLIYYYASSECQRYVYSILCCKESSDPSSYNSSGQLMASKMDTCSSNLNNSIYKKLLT
The assay can be described thus: In vitro Thrombin Receptor Antagonist Assay ([3H]haTRAP radioligand binding, platelet membranes). The conditions noted are these: [3H]haTRAP 10 nM, read-out: IC50 (concentration at which a 50% inhibition of thrombin receptor was observed). Here is the method:
In Vitro Testing Procedure for Thrombin Receptor Antagonists:
Preparation of [^3 H]haTRAP
The vessel was attached to the tritium line, frozen in liquid nitrogen and evacuated. […] At the completion of the reaction, the excess tritium was removed and the reacted peptide solution was diluted with DMF (0.5 ml) and filtered to remove the catalyst. The collected DMF solution of the crude peptide was diluted with water and freeze dried to remove the labile tritium. The solid peptide was redissolved in water and the freeze drying process repeated. The tritiated peptide ([^3 H]haTRAP) was dissolved in 0.5 ml of 0.1% aqueous TFA and purified by HPLC using the following conditions: column, Vydac C18, 25 cm×9.4 mm I.D.; mobile phase, (A) 0.1% TFA in water, (B) 0.1% TFA in CH3 CN; gradient, (A/B) from 100/0 to 40/60 over 30 min; flow rate, 5 ml/min; detection, UV at 215 nm.
Preparation of platelet membranes
All steps were carried out at 4° C. under approved biohazard safety conditions. Platelets were centrifuged at 100×g for 20 minutes at 4° C. to remove red cells. The supernatants were decanted and centrifuged at 3000×g for 15 minutes to pellet platelets. Platelets were resuspended in 10 mM Tris-HCl, pH 7.5,150 mM NaCl, 5 mM EDTA, to a total volume of 200 ml and centrifuged at 4400×g for 10 minutes. This step was repeated two additional times. Platelets were resuspended in 5 mM Tris-HCl, pH 7.5, 5 mM EDTA to a final volume of approximately 30 ml and were homogenized with 20 strokes in a Dounce homogenizer. Membranes were pelleted at 41,000×g, resuspended in 40-50 ml 20 mM Tris-HCl, pH 7.5,1 mM EDTA, 0.1 mM dithiothreitol, and 10 ml aliquots were frozen in liquid N2 and stored at -80° C. To complete membrane preparation, aliquots were thawed, pooled, and homogenized with 5 strokes of a Dounce homogenizer. Membranes were pelleted and washed 3 times in 10 mM triethanolamine-HCl, pH 7.4, 5 mM EDTA, and resuspended in 20-25 ml 50 mM Tris-HCl, pH 7.5, 10 mM MgCl2, 1 mM EGTA, and 1% DMSO. Aliquots of membranes were frozen in liquid N2 and stored at -80° C.
High Throughput Thrombin Receptor Radioligand Binding Assay
Stock solutions (10 mM in 100% DMSO) of test compounds were further diluted in 100% DMSO. Unless otherwise indicated, 10 μl of diluted compound solutions and 90 μl of radioligand (a final concentration of 10 nM in 5% DMSO) were added to each well, and the reaction was started by the addition of 100 μl of membranes (40 μg protein/well). […] Compounds were tested at three concentrations (0.1, 1 and 10 μM). The plates were covered and vortex-mixed gently on a Lab-Line Titer Plate Shaker for 1 hour at room temperature. Packard UniFilter GF/C filter plates were soaked for at least 1 hour in 0.1% polyethyleneimine. The incubated membranes were harvested using a Packard FilterMate Universal Harvester and were rapidly washed four times with 300 μl ice cold 50 mM Tris-HCl, pH 7.5, 10 mM MgCl2, 1 mM EGTA. MicroScint 20 scintillation cocktail (25 μl) was added to each well, and the plates were counted in a Packard TopCount Microplate Scintillation Counter. The specific binding was defined as the total binding minus the nonspecific binding observed in the presence of excess (50 μM) unlabeled haTRAP. The % inhibition by a compound of [^3 H]haTRAP binding to thrombin receptors was calculated from the following relationship: […]
A(pF-F)R(ChA)(hR)Y--NH2 and A(pF-F)R(ChA)(hR)(I2 -Y)--NH2, were custom synthesized by AnaSpec Inc. (San Jose, Calif.). […] The gas was subsequently loaded and stored on an IN/US Systems Inc. Trisorber.

Assay [1] deals with platelet aggregation (platelets, haTRAP or thrombin). The assay can be described thus: In vitro Platelet Aggregation Inhibition (PAI). The settings on record: Homo sapiens, read-out: In vitro PAI IC50. It counts as cell-based. How it is done:
In vitro Platelet Aggregation Procedure:
Blood was obtained from healthy human subjects who were aspirin free for at least 7 days by venipuncture using ACD as anticoagulant. Platelet rich plasma was prepared by centrifugation at 100×g for 15 minutes at 15 deg C. Platelets were pelleted at 3000×g and washed twice in buffered saline containing 1 mM EGTA and 20 μg/ml apyrase to inhibit aggregation. Aggregation was performed at room temperature in buffered saline supplemented with 0.2 mg/ml human fibrinogen. Test compound and platelets were preincubated in 96-well flat-bottom plates for 60 minutes. Aggregation was initiated by adding 0.3 μM haTRAP or 0.1 U/ml thrombin and rapidly vortexing the mixture using a Lab Line Titer Plate Shaker (speed 7). Percent aggregation was monitored as increasing light transmittance at 405 nm in a Spectromax Plate Reader.

For assay [2], the system named is platelet aggregation (Whole Blood, haTRAP). As to the kind of experiment: Ex-vivo Platelet Aggregation In Cynomolgus Whole Blood. Details: species or system cynomolgus monkey. Here is the method:
Protocol For Ex-Vivo Platelet Aggregation In Cynomolgus Whole Blood Drug administration and blood collection:
Conscious chaired cynomolgus monkeys are allowed to equilibrate for 30 min. A needle catheter is inserted into a brachial vein for infusion of test drugs. Another needle catheter is inserted into the other brachial or saphenous vein and used for blood sampling. In those experiments where the compound is administered orally only one catheter is used. A baseline blood sample (1-2 ml) is collected in vacutainer tubes containing a thrombin inhibitor CVS 2139 (100 μg/0.1 ml saline) as an anticoaculant. The drug is then infused intravenously over a period of 30 min. Blood samples (1 ml) are collected at 5, 10, 20, 30 min during and 30, 60, 90 min after termination of the drug infusion. In PO experiments the animals are dosed with the drug using a gavage cannula. Blood samples are collected at 0, 30, 60, 90, 120, 180, 240, 300, 360 min after dosing. […]
A 0.5 ml blood sample is added to 0.5 ml of saline and warmed to 37° C. in a Chronolog whole blood aggregometer. […] The agonist (haTRAP) is added by an adjustable volume pipette (5-25 μl) and the aggregation curve is recorded for 10 minutes. Maximum aggregation in 6 minutes following agonist is the value recorded.

Setting [3] is: 0.3 μM haTRAP or 0.1 U/ml thrombin, 60 min preincubation.

Read-outs that look alike come from different tables or passages of the source.

On to `Cc1cc(C)nc(/C=C/[C@@H]2[C@H]3CCCC[C@@H]3C[C@@H]3C(=O)O[C@@H](C)[C@H]23)c1` [Example 1A], for which the IC50 on Thrombin receptor is 1600 nM.

In the case of `C[C@H]1OC(=O)[C@@H]2C[C@@H]3CCCC[C@H]3[C@H](/C=C/c3ccc4cc(O)ccc4n3)[C@H]12` [Example 1BN], the IC50 on Thrombin receptor is 6 nM; in assay [1] (setting [3]) it was 100 to 300 nM.

For `Cc1ccccc1-c1ccc(/C=C/[C@H]2[C@@H]3CCCC[C@H]3C[C@H]3C(=O)O[C@H](C)[C@@H]23)nc1` [Example 1DK], the IC50 on Thrombin receptor was 14 nM.

Take `C[C@H]1OC(=O)[C@@H]2C[C@@H]3CCCC[C@H]3[C@H](/C=C/c3ccc(-c4cccc5c4OCO5)cn3)[C@H]12` [Example 1DR]: the IC50 in assay [1] (setting [3]) was 100 nM.

Consider `C[C@H]1OC(=O)[C@@H]2C[C@@H]3CCCC[C@H]3[C@H](/C=C/c3ccc(-c4cc(C(F)(F)F)cc(C(F)(F)F)c4)cn3)[C@H]12` [Example 1ES], for which the IC50 at Thrombin receptor was 4 nM.

Regarding `Cc1cccc(/C=C/[C@H]2[C@H]3[C@H](C)OC(=O)[C@H]3C=C3CCCC[C@@H]32)n1` [Example 2E], at Thrombin receptor, the IC50 worked out at 350 nM.

Consider `O=C1OCC2C1Cc1ccccc1C2C=Cc1ccc(-c2cccc(C(F)(F)F)c2)cn1` (stereo not shown) [Example 3K], for which, at Thrombin receptor, the IC50 was 10 nM.

For `C[C@H]1OC(=O)[C@@H]2C[C@@H]3CCCC[C@H]3[C@H](/C=C/c3ccc(-c4cccc(C(F)(F)F)c4)cn3)[C@H]12` [Example 4, (+)-(3R,3aS,4S,4aR,8aS,9aR)-Decahydro-4-[(E)-2-[5-[3-(trifluoromethyl)phenyl]-2-pyridinyl]ethenyl]-3-Methylnaphtho-[2,3-c]furan-1(3H)-one], in assay [1], the IC50 was determined as 67 nM. Besides, in assay [2] (3 mpk, oral in betahydroxypropylcyclodextrin as cosolvent), the “Ex-vivo C. Monkey Whole Blood PAI” value is 100%.

For the compound `CNC(=O)C1Cc2ccccc2C(C=Cc2ccc(-c3cccc(C(F)(F)F)c3)cn2)C1CO` (stereo not shown) [Example 7], the IC50 at Thrombin receptor is 1140 nM.

Turning to `CCc1cccc(/C=C/[C@H]2[C@@H]3CCCC[C@H]3C[C@H]3C(=O)O[C@H](C)[C@@H]23)n1` [Example 8, (+)-(3R,3aS,4S,4aR,8aS,9aR)-Decahydro-4-[(E)-2-(6-ethyl-2-pyridinyl)ethenyl]-3-methylnaphtho[2,3-c]furan-1(3H)-one], the IC50 in assay [1] amounted to 300 nM. Also, in assay [2] (10 mpk, i.v. infusion over 30 min. in 5% dextrose), the “Ex-vivo C. Monkey Whole Blood PAI” value is given as 100%.

These data come from patent US6326380A, “Thrombin receptor antagonists” (Schering Corporation, priority 2000, dated 2001).
